Reference: ChEMBL document CHEMBL6182901, “1,5-Disubstituted 1,2,3-triazoles: Molecular scaffolds for medicinal chemistry and biomolecular mimetics” (Eur J Med Chem, 2025)
Converted amounts (≈) assume the structure as drawn. Residues, ends and D or L forms follow the SMILES beside them.

Assays:
[1] = Binding affinity to c-Src (unknown origin) assessed as inhibition constant by fluorescence based assay; design: species or system Homo sapiens
[2] = Binding affinity to c-Abl (unknown origin) assessed as inhibition constant by fluorescence based assay; design: species or system Homo sapiens
HeLa = test: Cytostatic activity against human HeLa cells measured for 72 hrs; format: functional; conditions: read-out: ED50 (the source's name)
Histone deacetylase = test: Inhibition of HDAC extracted from human HeLa cell nuclear extract by fluorescence assay; format: subcellular, Nucleus
EMT6 [3] = test: Anticancer activity against mouse EMT6 cells assessed as reduction in cell viability incubated for 48 hrs by XTT assay; format: functional, cell-based; conditions: EMT6, 48 h
EMT6 [4] = test: Anticancer activity against mouse EMT6 cells assessed as reduction in cell viability at 100 uM incubated for 48 hrs by XTT assay relative to control; format: functional
[5] = molecular target: Human immunodeficiency virus type 1 reverse transcriptase (Human immunodeficiency virus 1, UniProt Q72547); test: Binding affinity to HIV-1 reverse transcriptase assessed as dissociation constant
[6] = Inhibition of bovine pancrease trypsin-catalyzed proteolysis of chromogenic substrate Boc-QAR-pNA; design: species or system Bos taurus
A549 = test: Cytotoxicity against human A549 cells assessed as reduction in cell viability incubated for 24 hrs by MTT assay; format: functional, cell-based; conditions: A549, 24 h
HepG2 = test: Cytotoxicity against human HepG2 cells assessed as reduction in cell viability incubated for 24 hrs by MTT assay; format: functional, cell-based; conditions: HepG2, 24 h
MDA-MB-231 = test: Cytotoxicity against human MDA-MB-231 cells assessed as reduction in cell viability incubated for 24 hrs by MTT assay; format: functional, cell-based; conditions: MDA-MB-231, 24 h
[7] = molecular target: Acetylcholine-binding protein (Lymnaea stagnalis, UniProt P58154); test: Binding affinity to Lymnaea stagnalis Acetylcholine-binding protein assessed as dissociation constant
Sequence of Acetylcholine-binding protein (P58154 whole entry): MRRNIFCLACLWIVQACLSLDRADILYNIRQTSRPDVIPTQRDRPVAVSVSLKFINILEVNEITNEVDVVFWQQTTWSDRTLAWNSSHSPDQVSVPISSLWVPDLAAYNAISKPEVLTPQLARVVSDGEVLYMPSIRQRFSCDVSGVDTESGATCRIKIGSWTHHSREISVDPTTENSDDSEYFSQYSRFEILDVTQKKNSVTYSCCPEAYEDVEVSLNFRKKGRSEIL

[8] = Binding affinity to Aplysia californica Acetylcholine-binding protein assessed as dissociation constant
[9] = Binding affinity to Aplysia californica Y55W Acetylcholine-binding protein assessed as dissociation constant
D-amino-acid oxidase = D-amino-acid oxidase (Homo sapiens, UniProt P14920); test: Binding affinity to human DAO assessed as inhibition constant
Sequence of D-amino-acid oxidase (P14920 whole entry): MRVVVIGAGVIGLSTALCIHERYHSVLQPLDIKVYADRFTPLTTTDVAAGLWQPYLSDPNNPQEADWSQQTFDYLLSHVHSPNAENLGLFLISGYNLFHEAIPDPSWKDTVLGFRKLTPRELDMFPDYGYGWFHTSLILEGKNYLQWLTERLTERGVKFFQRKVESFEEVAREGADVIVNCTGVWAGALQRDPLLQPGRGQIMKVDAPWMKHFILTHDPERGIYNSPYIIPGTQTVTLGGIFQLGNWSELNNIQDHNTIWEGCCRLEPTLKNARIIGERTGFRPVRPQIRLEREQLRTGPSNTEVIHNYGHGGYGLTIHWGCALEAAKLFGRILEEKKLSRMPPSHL

SW480 = test: Anticancer activity against human SW480 cells assessed as reduction in cell viability incubated for 48 hrs by XTT assay; format: functional, cell-based; conditions: SW480, 48 h
Staphylococcus aureus = test: Antibacterial activity against Staphylococcus aureus assessed as reduction in microbial growth by CLSI based broth microdilution method; format: functional
Escherichia coli = test: Antibacterial activity against Escherichia coli assessed as reduction in microbial growth by CLSI based broth microdilution method; format: functional
[10] = molecular target: C-X-C chemokine receptor type 4 (Homo sapiens, UniProt P61073); test: Displacement of 125I-CXCL12 from CXCR4 in human CCRF-CEM cells by competitive binding assay; format: cell-based
Sequence of C-X-C chemokine receptor type 4 (P61073 whole entry): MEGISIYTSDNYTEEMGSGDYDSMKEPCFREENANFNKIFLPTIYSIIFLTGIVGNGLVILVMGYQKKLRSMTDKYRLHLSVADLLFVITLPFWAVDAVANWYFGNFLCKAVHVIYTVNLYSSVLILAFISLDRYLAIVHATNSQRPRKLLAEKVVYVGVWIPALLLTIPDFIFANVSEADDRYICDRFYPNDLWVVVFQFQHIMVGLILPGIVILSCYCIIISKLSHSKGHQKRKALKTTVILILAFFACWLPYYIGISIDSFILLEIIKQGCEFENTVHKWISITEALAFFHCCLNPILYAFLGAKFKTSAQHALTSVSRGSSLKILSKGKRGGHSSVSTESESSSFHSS

[11] = Inhibition of bovine pancrease trypsin by microplate reader analysis; design: species or system Bos taurus

Nc1ncnc2c1c(-c1ccc(Cl)cc1)nn2-c1cccc(-c2cnnn2Cc2cccc(-c3ccccc3)c2)c1
Ki [1]: 0.044 µM
Ki [2]: > 125 µM

CC(=O)OC[C@H]1O[C@@H](n2cc(CBr)nn2)[C@H](OC(C)=O)[C@@H](OC(C)=O)[C@@H]1OC(C)=O
EC50 (HeLa): 3.5 µg/mL (≈ 7.11 µM)

CC(=O)OC[C@H]1O[C@@H](n2cc(CI)nn2)[C@H](OC(C)=O)[C@@H](OC(C)=O)[C@@H]1OC(C)=O
EC50 (HeLa): 2 µg/mL (≈ 3.71 µM)

CC(=O)OC[C@H]1O[C@@H](n2nncc2CBr)[C@H](OC(C)=O)[C@@H](OC(C)=O)[C@@H]1OC(C)=O
EC50 (HeLa): 4 µg/mL (≈ 8.13 µM)

CCC(=O)CCCCC[C@@H]1NC(=O)[C@@H](C(C)(C)C)n2cc(nn2)[C@H]([C@@H](C)CC)NC(=O)[C@H](Cc2c[nH]c3ccccc23)NC1=O
IC50 (Histone deacetylase): < 0.1 µM

CC1(C)CC[C@]2(C(=O)OCc3cnnn3-c3ccc([N+](=O)[O-])cc3)CC[C@]3(C)C(=CC[C@@H]4[C@@]5(C)CC[C@H](O)C(C)(C)[C@@H]5CC[C@]43C)[C@@H]2C1
IC50 (EMT6 [3]): 74 µM
Activity (EMT6 [4]): 74%

N[C@H]1C[C@@H](N)[C@H](OCc2cnnn2CC(=O)c2ccc(-c3ccccc3)cc2)C1
Kd [5]: 3.3 µM

CC[C@H](C)[C@@H]1NC(=O)[C@@H]2CCCN2C(=O)[C@@H]2CCCN2C(=O)[C@H]([C@@H](C)CC)NC(=O)[C@H](CO)NC(=O)[C@H](CCCCN)NC(=O)[C@@H]([C@H](C)O)NC(=O)[C@@H](NC(=O)[C@H](CCCNC(=N)N)NC(=O)CN)CSSC[C@@H](C(=O)N[C@@H](Cc2ccccc2)C(=O)N2CCC[C@H]2C(=O)N[C@@H](CC(=O)O)C(=O)O)NC1=O
Ki [6]: 0.00148 µM

O=C(Nc1ccccc1)[C@@H]1C[C@H]2CCc3cnnn3CCOc3cccc(c3)C(=O)N1C2
IC50 (A549): 46.3 µM
IC50 (HepG2): 36.3 µM
IC50 (MDA-MB-231): 43.7 µM

NC(=O)[C@@H]1C[C@H]2CCc3cnnn3CCOc3cccc(c3)C(=O)N1C2
IC50 (A549): 41.3 µM
IC50 (HepG2): 34.7 µM
IC50 (MDA-MB-231): 28 µM

C#Cc1cccc(-n2nc(-c3ccc(Cl)cc3)c3c(N)ncnc32)c1
Ki [1]: 1.45 µM
Ki [2]: 7.15 µM

N[C@H]1C[C@@H](N)[C@H](OCc2cnnn2CC(=O)c2ccc3ccccc3c2)C1
Kd [5]: 1.9 µM

Cn1c(=O)cc(OCc2cn(C3CC4CC3[N+]4(C)C)nn2)c2ccccc21 (stereo unspecified)
Kd [7]: 0.00096 µM
Kd [8]: 0.024 µM
Kd [9]: 0.017 µM

Cc1cccc(-n2nncc2COC(=O)[C@]23CCC(C)(C)C[C@H]2C2=CC[C@@H]4[C@@]5(C)CC[C@H](O)C(C)(C)[C@@H]5CC[C@@]4(C)[C@]2(C)CC3)c1
IC50 (EMT6 [3]): 60 µM

CC(C)CNC(=O)[C@@H]1C[C@H]2CCc3cnnn3CCOc3cccc(c3)C(=O)N1C2
IC50 (A549): 32.2 µM
IC50 (HepG2): 37.3 µM
IC50 (MDA-MB-231): 43.2 µM

CC[C@H](C)[C@@H]1NC(=O)[C@@H]2CCCN2C(=O)[C@@H]2CCCN2C(=O)[C@H]([C@@H](C)CC)NC(=O)[C@H](CO)NC(=O)[C@H](CCCCN)NC(=O)[C@@H]([C@H](C)O)NC(=O)[C@@H](NC(=O)[C@H](CCCNC(=N)N)NC(=O)CN)CCn2nncc2C[C@@H](C(=O)N[C@@H](Cc2ccccc2)C(=O)N2CCC[C@H]2C(=O)N[C@@H](CC(=O)O)C(=O)O)NC1=O
Ki [6]: 0.0024 µM

O=C(Cn1nncc1CO/N=C(/Cc1ccc(O)cc1)C(=O)O)N[C@@H](Cc1ccccc1)C(=O)O
Ki (D-amino-acid oxidase): 0.4 µM

CC1(C)CC[C@]2(C(=O)OCc3cn(-c4ccc(Cl)cc4)nn3)CC[C@]3(C)C(=CC[C@@H]4[C@@]5(C)CC[C@H](O)C(C)(C)[C@@H]5CC[C@]43C)[C@@H]2C1
IC50 (EMT6 [3]): 91.8 µM
IC50 (SW480): 76 µM

CC[C@H]1COC(=O)C[C@@H](O)[C@H](C)[C@@H](O[C@@H]2OC[C@@H](O)[C@H](N(C)C)[C@H]2O)[C@@H](CN(Cc2ccccc2)Cc2cnnn2-c2cnc3ccccc3c2)C[C@@H](C)C(=O)/C=C/C(C)=C/[C@@H]1CO
MIC (Staphylococcus aureus): 4 µg/mL
MIC (Escherichia coli): 464 µg/mL

Cn1c(=O)cc(OCc2cnnn2C2C[C@@H]3C[C@H]2[N+]3(C)C)c2ccccc21 (stereo partly specified)
Kd [7]: 0.00164 µM
Kd [8]: 0.331 µM
Kd [9]: 0.0981 µM

Nc1ncnc2c1c(-c1ccc(Cl)cc1)nn2-c1cccc(-c2cnnn2Cc2ccccc2)c1
Ki [1]: 0.207 µM
Ki [2]: > 125 µM

[N-]=[N+]=NCC(=O)N[C@@H](Cc1ccccc1)C(=O)O
Ki (D-amino-acid oxidase): 0.001 µM

O=C(O)[C@@H]1C[C@H]2CCc3cnnn3CCOc3cccc(c3)C(=O)N1C2
IC50 (A549): 37.1 µM
IC50 (HepG2): 44.9 µM
IC50 (MDA-MB-231): 34.3 µM

CC(=O)N[C@@H](CCCNC(=N)N)C(=O)N[C@@H](C)C(=O)N[C@H]1CCn2nncc2C[C@@H](C(=O)O)NC(=O)[C@H](Cc2c[nH]cn2)NC(=O)[C@H](Cc2ccc3ccccc3c2)NC(=O)[C@H](CCCNC(=N)N)NC(=O)C1
IC50 [10]: 0.022 µM

CC[C@H](C)[C@@H]1NC(=O)[C@H](CO)NC(=O)[C@@H](CCCCN)NC(=O)[C@@H]([C@H](C)O)NC(=O)[C@@H](NC(=O)[C@H](CCCNC(=N)N)NC(=O)CN)CCn2cc(nn2)C[C@@H](C(=O)N[C@@H](Cc2ccccc2)C(=O)N2CCC[C@H]2C(=O)N[C@@H](CC(=O)O)C(=O)O)NC(=O)[C@@H]([C@@H](C)CC)NC(=O)[C@@H]2CCCN2C(=O)[C@@H]2CCCN2C1=O
Ki [6]: 1.91 µM

N[C@H]1C[C@@H](N)[C@H](OCc2cnnn2CC(=O)c2ccc(-c3ccccn3)s2)C1
Kd [5]: 3.7 µM

CC1(C)CC[C@]2(C(=O)OCc3cn(-c4ccc(Br)cc4)nn3)CC[C@]3(C)C(=CC[C@@H]4[C@@]5(C)CC[C@H](O)C(C)(C)[C@@H]5CC[C@]43C)[C@@H]2C1
IC50 (EMT6 [3]): 91.8 µM
IC50 (SW480): 29.6 µM

CC(=O)N[C@@H](CCCNC(=N)N)C(=O)N[C@@H](C)C(=O)N[C@H]1CCn2cc(nn2)C[C@@H](C(=O)O)NC(=O)[C@H](Cc2c[nH]cn2)NC(=O)[C@H](Cc2ccc3ccccc3c2)NC(=O)[C@H](CCCNC(=N)N)NC(=O)C1
IC50 [10]: 0.018 µM

CC[C@H](C)[C@@H]1NC(=O)[C@@H]2CCCN2C(=O)[C@H](C)n2nncc2[C@H]([C@@H](C)CC)NC(=O)[C@H](CO)NC(=O)CNC(=O)[C@H]([C@@H](C)O)NC(=O)[C@@H](NC(=O)[C@H](CCCNC(=N)N)NC(=O)CN)CSSC[C@@H](C(=O)N[C@@H](Cc2ccccc2)C(=O)N2CCC[C@H]2C(=O)N[C@@H](CC(=O)O)C(=O)O)NC1=O (HELM PEPTIDE1{G.R.C.T.G.S.[CC[C@H](C)[C@H](N[*:1])c1cnnn1[C@@H](C)C(=O)[*:2]].P.I.C.F.P.D}$PEPTIDE1,PEPTIDE1,3:R3-10:R3$$$V2.0)
Ki [11]: 0.034 µM

CC[C@H](C)[C@@H]1NC(=O)[C@H](CO)NC(=O)[C@H](CCCCN)NC(=O)[C@H]([C@@H](C)O)NC(=O)[C@@H](NC(=O)[C@H](CCCNC(=N)N)NC(=O)CN)CSSC[C@@H](C(=O)N[C@@H](Cc2ccccc2)C(=O)N2CCC[C@H]2C(=O)N[C@@H](CC(=O)O)C(=O)O)NC(=O)[C@H]([C@@H](C)CC)NC(=O)[C@@H]2CCCN2C(=O)[C@H](C)NC1=O (HELM PEPTIDE1{G.R.C.T.K.S.I.A.P.I.C.F.P.D}$PEPTIDE1,PEPTIDE1,3:R3-11:R3$$$V2.0)
Ki [11]: 0.178 µM

CC[C@H](C)[C@@H]1NC(=O)[C@H](C)NC(=O)[C@@H]2CCCN2C(=O)[C@H]([C@@H](C)CC)NC(=O)[C@H](CO)NC(=O)[C@H](CCCCN)NC(=O)[C@H]([C@@H](C)O)NC(=O)[C@@H](NC(=O)[C@H](CCCNC(=N)N)NC(=O)CN)CSSC[C@@H](C(=O)N[C@@H](Cc2ccccc2)C(=O)N2CCC[C@H]2C(=O)N[C@@H](CC(=O)O)C(=O)O)NC1=O (HELM PEPTIDE1{G.R.C.T.K.S.I.P.A.I.C.F.P.D}$PEPTIDE1,PEPTIDE1,3:R3-11:R3$$$V2.0)
Ki [11]: 0.0032 µM

CC[C@H](C)[C@@H]1NC(=O)[C@H](C)n2nncc2[C@@H]2CCCN2C(=O)[C@H]([C@@H](C)CC)NC(=O)[C@H](CO)NC(=O)[C@H](CCCCN)NC(=O)[C@H]([C@@H](C)O)NC(=O)[C@@H](NC(=O)[C@H](CCCNC(=N)N)NC(=O)CN)CSSC[C@@H](C(=O)N[C@@H](Cc2ccccc2)C(=O)N2CCC[C@H]2C(=O)N[C@@H](CC(=O)O)C(=O)O)NC1=O (HELM PEPTIDE1{G.R.C.T.K.S.I.[C[C@@H](C(=O)[*:2])n1nncc1[C@@H]1CCCN1[*:1]].I.C.F.P.D}$PEPTIDE1,PEPTIDE1,3:R3-10:R3$$$V2.0)
Ki [11]: 0.255 µM
